According to patent US20250305931A1, “METHOD FOR ANALYZING A URINE SAMPLE, AND A REAGENT FOR ANALYZING A URINE SAMPLE” (SYSMEX CORPORATION, priority 2024, published 2025):

Assays:
[1] = tested on: purified yeast fungus (C. glabrata); experiment: Staining of yeast-like fungi in spiked negative urine, flow cytometer UF-5000 SF channel, average fluorescence intensity of the yeast cluster; format: cell-based; conditions: for average value of the fluorescence intensity compared with 2-phenoxyethanol used alone: Example 2, compound mixed with 2-phenoxyethanol; for average value of the fluorescence intensity compared with when other compounds are used: concentrations of Table 2
Description: Each of the following substances was dissolved in purified water to prepare a buffer solution.
When the compound shown in the following table was not dissolved, the compound was used after filtration. […] Furthermore, a first reagent having the same composition as Diluting Liquid of EXAMPLE-1 of U.S. Patent Publication No. 2006/0073601 was prepared. The first reagent is represented by [2-phenoxyethanol(*)] in the following table. In the following table, the compound of the present embodiment is shown in bold.
UF-fluorocell SF for UF-5000 (Sysmex Corporation) was used. Such reagents include polymethine-based dyes and stain lipid bilayer membranes and porous protein aggregates of cells, and the like.
A purified yeast fungus (C. glabrata) was added to negative urine to a concentration of about 1800 cells/μL. In order to confirm the effect on red blood cells, human blood was added to negative urine so that the concentration of red blood cells was about 400 cells/μL. As the negative urine, a commercially available Normal Human Urine (Golden West Diagnostics, LLC) was filtered through a 0.22-μm membrane filter, and a urine specimen having a negative result in a sediment assay was used.
A measurement sample was prepared by mixing a first reagent and a second reagent with a urine sample, and measurement was performed using an SF channel of a flow cytometer UF-5000 (Sysmex Corporation), and a scattergram was prepared in which a forward scattered light intensity was taken on the vertical axis and a fluorescence intensity was taken on the horizontal axis. In measurement using the SF channel, red blood cells, crystals, a glass cylinder, a cylinder containing contents, and the like are measured. To calculate the average value of the fluorescence intensity of yeast fungi, an arbitrary region Y for each measurement was set, and the average value of the fluorescence intensity of a population of dots appearing in the region was calculated. Note that the value of the fluorescence intensity is a relative value when the minimum value of the horizontal axis in the scattergram is 0 and the maximum value is 255.
SF. Specifically, after mixing 362.5 μL of the first reagent, 125 μL of the urine specimen, and 12.5 μL of the second reagent, the measurement sample was prepared by stirring at about 39° C. for 9 seconds, and then flowed into the flow cell of the detection section. Information on scattered light and fluorescence emitted from particles in the measurement sample that received the laser beam was acquired by the detection unit. A scattergram was generated based on the obtained optical information.

yeast-like fungi = experiment: Clinical urine specimens, staining of yeast-like fungi on the scattergram; format: cell-based; conditions: Example 4, chlorphenesin 3 g/L, or 1,2-octanediol 2 g/L with 2-phenoxyethanol 6 g/L, control UF-CELLPACK SF
Description: The following specimens were used as the specimen. • (1) Clinical specimen 1: a specimen in which yeast-like fungi and red blood cells are detected in a microscopy • (2) Clinical specimen 2 to 4: a specimen in which yeast-like fungi have been detected by microscopy • (3) Clinical specimen 5 to 10: a specimen in which red blood cells are detected in a microscopy
A urine sample was measured in the same manner as in Example 1, except that the first reagent was prepared by adding 3 g/L chlorphenesin or 6 g/L 2-phenoxyethanol and 2 g/L 1,2-octanediol to the buffer solution described in Example 1. In addition, a urine sample was measured in the same manner as in Example 1 using UF-CELLPACK SF (manufactured by Sysmex) as a first reagent as a control. UF-CELLPACK SF (manufactured by Sysmex) contained 6 g/L of 2-phenoxyethanol. In the following table, the compound of the present embodiment is shown in bold.

[2] = Example 1, 10 g/L in first reagent, final 7.3 g/L, filtered if not dissolved, relative scale 0-255

## OCCCCC(O)CO (stereo not drawn) [1,2,6-HEXANETRIOL, reference compound]
[1]; [2]
  AVERAGE VALUE OF FLUORESCENT SIGNAL INTENSITY: 80.5

## CCCCCCCCC(O)CO (stereo not drawn) [1,2-DECANEDIOL, 1,2-decanediol]
[1]; Example 1, 1 g/L in first reagent, final 0.7 g/L, relative scale 0-255
  AVERAGE VALUE OF FLUORESCENT SIGNAL INTENSITY: 252.7

## CCCCCCCCCCC(O)CO (stereo not drawn) [1,2-DODECANEDIOL, reference compound]
[1]; Example 1, 0.5 g/L in first reagent, final 0.4 g/L, relative scale 0-255
  AVERAGE VALUE OF FLUORESCENT SIGNAL INTENSITY: 107.6

## CCCCC(O)CO (stereo not drawn) [1,2-HEXANEDIOL, reference compound]
[1]; [2]
  AVERAGE VALUE OF FLUORESCENT SIGNAL INTENSITY: 107.7

## CCCCCCC(O)CO (stereo not drawn) [1,2-OCTANEDIOL, 1,2-octanediol]
[1]; Example 1, 6 g/L in first reagent, final 4.4 g/L, relative scale 0-255
  AVERAGE VALUE OF FLUORESCENT SIGNAL INTENSITY: 253.4
[1]
  average value of the fluorescence intensity compared with 2-phenoxyethanol used alone: significantly larger
[1]; Example 3, 3 g/L in first reagent, final 2.2 g/L
  AVERAGE VALUE OF FLUORESCENT SIGNAL INTENSITY: 222.1
[1]; Example 3, 4 g/L in first reagent, final 2.9 g/L
  AVERAGE VALUE OF FLUORESCENT SIGNAL INTENSITY: 245.3
[1]; Example 3, 5 g/L in first reagent, final 3.6 g/L
  AVERAGE VALUE OF FLUORESCENT SIGNAL INTENSITY: 251.0
[1]; Example 3, 6 g/L in first reagent, final 4.4 g/L
  AVERAGE VALUE OF FLUORESCENT SIGNAL INTENSITY: 252.1
yeast-like fungi; clinical specimen 1 (yeast-like fungi and red blood cells)
  staining of yeast-like fungi: more strongly stained
yeast-like fungi; clinical specimens 2 to 4 rich in yeast-like fungi
  staining of yeast-like fungi: more strongly stained

## OCCCCCCCCO [1,8-OCTANEDIOL, reference compound]
[1]; [2]
  AVERAGE VALUE OF FLUORESCENT SIGNAL INTENSITY: 120.5

## COc1cccc(OCC(C)O)c1 (stereo not drawn) [1-(3-METHOXYPHENOXY)-2-PROPANOL, 1-(3-methoxyphenoxy)-2-propanol]
[1]; Example 1, 9 g/L in first reagent, final 6.5 g/L, relative scale 0-255
  AVERAGE VALUE OF FLUORESCENT SIGNAL INTENSITY: 246.8
[1]; Example 1
  average value of the fluorescence intensity compared with when other compounds are used: significantly larger

## CCCCCCCCC(C)O (stereo not drawn) [2-DECANOL, reference compound]
[1]; [2]
  AVERAGE VALUE OF FLUORESCENT SIGNAL INTENSITY: 106.0

## CCCCCC(C)O (stereo not drawn) [2-HEPTANOL, 2-heptanol]
[1]; [2]
  AVERAGE VALUE OF FLUORESCENT SIGNAL INTENSITY: 250.1
[1]
  average value of the fluorescence intensity compared with 2-phenoxyethanol used alone: significantly larger

## CCCCCCC(C)O (stereo not drawn) [2-OCTANOL, 2-octanol]
[1]; [2]
  AVERAGE VALUE OF FLUORESCENT SIGNAL INTENSITY: 240.6

## OCCOc1ccccc1 [2-PHENOXYETHANOL, 2-phenoxyethanol, reference compound]
[1]; Example 1, 7.5 g/L in first reagent, final 5.4 g/L, relative scale 0-255
  AVERAGE VALUE OF FLUORESCENT SIGNAL INTENSITY: 196.9

## OCCCOc1ccccc1 [3-PHENOXY-1-PROPANOL, 3-phenoxy-1-propanol]
[1]; Example 1, 7 g/L in first reagent, final 5.1 g/L, relative scale 0-255
  AVERAGE VALUE OF FLUORESCENT SIGNAL INTENSITY: 253.6
[1]; Example 1
  average value of the fluorescence intensity compared with when other compounds are used: significantly larger
[1]
  average value of the fluorescence intensity compared with 2-phenoxyethanol used alone: significantly larger

## COC(=O)c1ccc(O)cc1 [METHYLPARABEN, reference compound]
[1]; Example 1, 1.9 g/L in first reagent, final 1.4 g/L, relative scale 0-255
  AVERAGE VALUE OF FLUORESCENT SIGNAL INTENSITY: 220.5

## Oc1ccccc1-c1ccccc1 [ORTHOPHENYLPHENOL, orthophenylphenol]
[1]; Example 1, 3 g/L in first reagent, final 2.2 g/L, relative scale 0-255
  AVERAGE VALUE OF FLUORESCENT SIGNAL INTENSITY: 250.1
[1]; Example 1
  average value of the fluorescence intensity compared with when other compounds are used: significantly larger

## OCCOCCOc1ccccc1 [PHENYL DIGLYCOL, reference compound]
[1]; [2]
  AVERAGE VALUE OF FLUORESCENT SIGNAL INTENSITY: 165.0
